Data published in patent publication US20260199309A1, “COMPOUNDS FOR THE TREATMENT OF CENTRA NERVOUS SYSTEM DISORDERS” (Autifony Therapeutics Limited, priority 2022, published 2026).
Where two headings read alike, the source gives them in different places.

Target: T1, human Kv3.1 channels (hKv3.1) (Homo sapiens, UniProt P48547)
T1 construct: expressed in transfected cells
T1 sequence (P48547 1-511): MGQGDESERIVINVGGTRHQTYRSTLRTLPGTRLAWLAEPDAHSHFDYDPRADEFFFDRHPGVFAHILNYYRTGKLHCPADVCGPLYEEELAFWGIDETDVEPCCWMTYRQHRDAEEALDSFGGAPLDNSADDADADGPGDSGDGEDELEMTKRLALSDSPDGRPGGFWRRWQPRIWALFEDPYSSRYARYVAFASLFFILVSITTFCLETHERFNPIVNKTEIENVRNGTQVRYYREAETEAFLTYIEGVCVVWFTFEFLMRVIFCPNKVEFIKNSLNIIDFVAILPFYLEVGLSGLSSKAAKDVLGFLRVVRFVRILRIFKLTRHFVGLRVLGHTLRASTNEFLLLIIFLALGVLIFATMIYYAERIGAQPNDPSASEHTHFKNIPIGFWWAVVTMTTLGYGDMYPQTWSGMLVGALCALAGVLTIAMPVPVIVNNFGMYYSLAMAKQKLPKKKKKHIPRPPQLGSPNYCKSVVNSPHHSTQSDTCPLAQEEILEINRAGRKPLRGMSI
Assay: Kv3.1 channel modulation, IonWorks Quattro planar array electrophysiology
Type: cell-based
Conditions: for Kv3.1 max R %: normalised to maximum effect of 50 microM reference compound

[1] = HEK-293 cells expressing human Kv3.1, currents at −15 mV voltage step, normalised to 50 microM reference compound and vehicle, read-out: Kv3.1 pEC50 (converted)
[2] = HEK-293 cells expressing human Kv3.1, currents at −15 mV voltage step, normalised to 50 microM reference compound and vehicle
[3] = HEK-293 cells expressing human Kv3.1

Row | SMILES | EC50 [1] | Kv3.1 pEC50 [2] | Kv3.1 max R % [3] | EC50
1 | CC[C@H]1NC(=O)N(c2ccc(Oc3ccc(C)c4c3C3(CC3)CO4)nc2C)C1=O [Reference Example 12, reference compound] | 0.631 µM | – | – | –
2 | CC[C@H]1NC(=O)N(c2ccc(Oc3ccc(C)c(OC(F)(F)F)c3)nc2N)C1=O [Example 8, (5R)-3-[2-amino-6-[4-methyl-3-(trifluoromethoxy)phenoxy]-3-pyridyl]-5-ethyl-imidazolidine-2,4-dione] | 3.16 µM | 5.5 | 137% | –
3 | CC1(C)NC(=O)N(c2ccc(Oc3cccc4c3C3(CC3)CO4)nc2N)C1=O [Example 3, 3-(2-amino-6-spiro[2H-benzofuran-3,1′-cyclopropane]-4-yloxy-3-pyridyl)-5,5-dimethyl-imidazolidine-2,4-dione] | 0.501 µM | 6.3 | 159% | –
4 | CC1(C)NC(=O)N(c2ccc(Oc3cccc4c3C3(CC3)CO4)nc2)C1=O [Reference Example 4, reference compound] | 31.6 µM | – | – | –
5 | CC[C@H]1NC(=O)N(c2ccc(Oc3ccc(C#N)c(OC(F)(F)F)c3)nc2N)C1=O [Example 11, 4-[[6-amino-5-[(4R)-4-ethyl-2,5-dioxo-imidazolidin-1-yl]-2-pyridyl]oxy]-2-(trifluoromethoxy)benzonitrile] | 3.16 µM | 5.5 | 161% | –
6 | CC1(C)NC(=O)N(c2ccc(Oc3ccc(C#N)c(OC(F)(F)F)c3)nc2N)C1=O [Example 10, 4-[[6-amino-5-(4,4-dimethyl-2,5-dioxo-imidazolidin-1-yl)-2-pyridyl]oxy]-2-(trifluoromethoxy)benzonitrile] | 2.51 µM | 5.6 | 113% | –
7 | CC[C@H]1NC(=O)N(c2ccc(Oc3ccc(C)c4c3C3(CC3)CO4)nc2OC)C1=O [Reference Example 11, reference compound] | 1.26 µM | – | – | –
8 | CC1(C)NC(=O)N(c2ccc(Oc3cccc4c3C(C)(C)CO4)nc2N)C1=O [Example 5, 3-[2-amino-6-[(3,3-dimethyl-2H-benzofuran-4-yl)oxy]-3-pyridyl]-5,5-dimethyl-imidazolidine-2,4-dione] | 0.631 µM | – | 152% | –
9 | COc1cccc(Oc2ccc(N3C(=O)NC(C)(C)C3=O)c(N)n2)c1 [Example 6, 3-[2-amino-6-(3-methoxyphenoxy)-3-pyridyl]-5,5-dimethyl-imidazolidine-2,4-dione] | 12.6 µM | – | 89% | –
10 | Cc1ccc(Oc2ccc(N3C(=O)NC(C)(C)C3=O)cn2)cc1OC(F)(F)F [Reference Example 6, reference compound] | – | – | – | 10 µM
11 | COc1nc(Oc2cccc3c2C2(CC2)CO3)ccc1N1C(=O)NC(C)(C)C1=O [Reference Example 5, reference compound] | 3.98 µM | – | – | –
12 | CC(C)c1cc(Oc2ccc(N3C(=O)NC(C)(C)C3=O)c(N)n2)ccc1C#N [Example 12, 4-[[6-amino-5-(4,4-dimethyl-2,5-dioxo-imidazolidin-1-yl)-2-pyridyl]oxy]-2-isopropyl-benzonitrile] | 2 µM | – | 175% | –
13 | CC[C@H]1NC(=O)N(c2ccc(Oc3cccc4c3C3(CC3)CO4)nc2N)C1=O [Example 4, (5R)-3-(2-amino-6-spiro[2H-benzofuran-3,1′-cyclopropane]-4-yloxy-3-pyridyl)-5-ethyl-imidazolidine-2,4-dione] | 1 µM | 6.0 | 159% | –
14 | Cc1ccc(Oc2ccc(N3C(=O)NC(C)(C)C3=O)c(N)n2)cc1OC(F)(F)F [Example 7, 3-[2-amino-6-[4-methyl-3-(trifluoromethoxy)phenoxy]-3-pyridyl]-5,5-dimethyl-imidazolidine-2,4-dione] | 2.51 µM | 5.6 | 135% | –
15 | Cc1ccc(Oc2ccc(N3C(=O)NC(C)(C)C3=O)c(N)n2)c2c1OCC2(C)C [Example 14, 3-[2-amino-6-[(3,3,7-trimethyl-2H-benzofuran-4-yl)oxy]-3-pyridyl]-5,5-dimethyl-imidazolidine-2,4-dione] | 0.501 µM | – | 165% | –
16 | Cc1ccc(Oc2ccc(N3C(=O)NC(C)(C)C3=O)cn2)c2c1OCC21CC1 [Reference Example 1, reference compound] | – | – | – | 2.51 µM
17 | Cc1ccc(Oc2ccc(N3C(=O)NC(C)(C)C3=O)c(C)n2)c2c1OCC21CC1 [Reference Example 3, reference compound] | 1.58 µM | – | – | –
18 | CC[C@H]1NC(=O)N(c2ccc(Oc3ccc(C#N)c(C(C)C)c3)nc2N)C1=O [Example 13, 4-[[6-amino-5-[(4R)-4-ethyl-2,5-dioxo-imidazolidin-1-yl]-2-pyridyl]oxy]-2-isopropyl-benzonitrile] | 3.16 µM | 5.5 | 161% | –
19 | CC[C@H]1NC(=O)N(c2ccc(Oc3ccc(C)c4c3C3(CC3)CO4)nc2N)C1=O [Example 2, (5R)-3-[2-amino-6-(7-methylspiro[2H-benzofuran-3,1′-cyclopropane]-4-yl)oxy-3-pyridyl]-5-ethyl-imidazolidine-2,4-dione] | 0.501 µM | 6.3 | 161% | –

Continued, in another order:

Row | EC50 [1] | SMILES | Kv3.1 pEC50 [2] | Kv3.1 max R % [3] | EC50
20 | 10 µM | CC[C@H]1NC(=O)N(c2ccc(Oc3ccc(C#N)c(OC(F)(F)F)c3)nc2OC)C1=O [Reference Example 18, reference compound] | – | – | –
21 | 1.26 µM | CC[C@H]1NC(=O)N(c2ccc(Oc3ccc(C#N)c(C(C)C)c3)nc2)C1=O [Reference Example 19, reference compound] | – | – | –
22 | 12.6 µM | COc1nc(Oc2ccc(C)c(OC(F)(F)F)c2)ccc1N1C(=O)NC(C)(C)C1=O [Reference Example 7, reference compound] | – | – | –
23 | 2.51 µM | CC[C@H]1NC(=O)N(c2ccc(Oc3ccc(C)c(OC(F)(F)F)c3)nc2)C1=O [Reference Example 15, reference compound] | – | – | –
24 | 6.31 µM | Cc1ccc(Oc2ccc(N3C(=O)NC(C)(C)C3=O)c(C)n2)cc1OC(F)(F)F [Reference Example 8, reference compound] | – | – | –
25 | 7.94 µM | CC[C@H]1NC(=O)N(c2ccc(Oc3ccc(C)c(OC(F)(F)F)c3)nc2OC)C1=O [Reference Example 16, reference compound] | – | – | –
26 | 2 µM | CC[C@H]1NC(=O)N(c2ccc(Oc3cccc4c3C3(CC3)CO4)nc2OC)C1=O [Reference Example 14, reference compound] | – | – | –
27 | 5.01 µM | CC[C@H]1NC(=O)N(c2ccc(Oc3ccc(C)c(OC(F)(F)F)c3)nc2C)C1=O [Reference Example 17, reference compound] | – | – | –
28 | 12.6 µM | COc1nc(Oc2ccc(C#N)c(OC(F)(F)F)c2)ccc1N1C(=O)NC(C)(C)C1=O [Reference Example 9, reference compound] | – | – | –
